pIC50: −log10 of the molar value.

For the test, the target named is T1, GST tagged IRAK4 (Homo sapiens, UniProt Q9NWZ3).
T1 construct: purchased SignalChem
T1 sequence (Q9NWZ3 1-460): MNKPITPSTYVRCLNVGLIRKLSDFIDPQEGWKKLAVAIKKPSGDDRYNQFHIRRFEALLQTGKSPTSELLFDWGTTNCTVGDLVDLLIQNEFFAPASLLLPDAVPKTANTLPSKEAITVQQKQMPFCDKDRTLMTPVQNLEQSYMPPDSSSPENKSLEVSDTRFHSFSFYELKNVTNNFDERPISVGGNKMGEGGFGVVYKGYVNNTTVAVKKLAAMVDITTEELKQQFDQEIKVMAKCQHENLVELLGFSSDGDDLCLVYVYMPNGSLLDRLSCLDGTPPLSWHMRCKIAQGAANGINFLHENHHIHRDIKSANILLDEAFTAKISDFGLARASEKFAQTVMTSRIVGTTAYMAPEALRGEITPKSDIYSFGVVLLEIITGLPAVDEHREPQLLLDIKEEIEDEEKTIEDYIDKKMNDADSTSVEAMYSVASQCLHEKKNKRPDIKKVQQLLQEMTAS
Briefly: IRAK4 kinase activity assay, IMAP fluorescence polarization, phosphorylation of fluorescently labeled peptide. In kind it is biochemical. The note with it: 0.5 nM GST tagged IRAK4, 100 nM peptide substrate, 100 μM ATP, 30 minutes at 25° C. Here is the method: The kinase activity of IRAK4 is measured by its ability to phosphorylate a fluorescently labeled synthetic peptide in the presence of ATP. The assay format is based on the Immobilized Metal Ion Affinity-Based Fluorescence Polarization (IMAP) platform developed by Molecular Devices. Briefly, reaction mixture (20 μL) contains the assay buffer (20 mM Tris.Cl, pH 7.2, 1 mM MgCl2, 1 mM DTT, and 0.02% Tween 20), 0.5 nM GST tagged IRAK4 (SignalChem), 100 nM peptide substrate and 100 μM ATP. The amino acid sequence of the peptide substrate is 5FAM-RKRQGSVRRRVH-COOH (Cat #: RP7030, Molecular Devices). The reaction is initiated by adding substrates ATP and RP7030, and terminated by adding Stop solution (60 μL) after 30 minutes of incubation at 25° C. The Stop solution is prepared with IMAP Progressive Reagent A/B and Binding reagent according to vender's instruction. The extent of phosphorylation of the peptide is measured by changes in Fluorescence Polarization (FP) resulting from binding of phosphate group on the peptide with immobilized metal coordination complexes on the nanoparticles included in the Stop solution. Errors in the calculated IRAK4 IC50 values range from 4-12% from duplicate experiments.
`NC(=O)c1cc2ccnc3c2cc1OCCOCCN1C(=O)CCC1CO3` (centres unmarked) [Compound IX, 4^5-oxo-2,7,10-trioxa-1(1,7)-isoquinolina-4(2,1)-pyrrolidinacyclodecaphane-1^6-carboxamide] gave a pIC50 of 5.00 to 5.52. Compound `COc1cc2c(OC[C@@H]3CCC(=O)N3)nccc2cc1C(N)=S` [Compound XI, (S)-7-methoxy-1-((5-oxopyrrolidin-2-yl)methoxy)isoquinoline-6-carbothioamide] had a pIC50 of 5.52 to 6.30.

`NC(=O)c1cc2ccnc3c2cc1OCCOCC(=O)N1CC(CO3)C1` [Compound XIV, 5-oxo-2,7,10-trioxa-1(1,7)-isoquinolina-4(3,1)-azetidinacyclodecaphane-16-carboxamide] had a pIC50 of 5.52 to 6.30. In turn, `COc1cc2c(N3CCC[C@H](N)C3)nccc2cc1C(N)=O` [Compound XX, (S)-1-(3-aminopiperidin-1-yl)-7-methoxyisoquinoline-6-carboxamide] had a pIC50 of over 6.30.

The compound `COc1cc2c(N3CCC[C@H](O)C3)nccc2cc1C(N)=O` [Compound XXI, (S)-1-(3-hydroxypiperidin-1-yl)-7-methoxyisoquinoline-6-carboxamide] showed a negative-log IC50 (pIC50) of 5.52 to 6.30.

Compound `CC#Cc1cnc(NC[C@@H]2CCC(=O)N2)c2cc(OC)c(C(N)=O)cc12` [Compound XXII, (S)-7-methoxy-1-(((5-oxopyrrolidin-2-yl)methyl)amino)-4-(prop-1-yn-1-yl) isoquinoline-6-carboxamide] showed a pIC50 of over 6.30. `CCC[C@@H]1CC(=O)N2COCCOc3cc4c(nccc4cc3C(N)=O)OC[C@H]12` [Compound XXIV, (4^2S,4^3R)-4^5-oxo-4^3-propyl-2,6,9-trioxa-1 (1,7)-isoquinolina-4 (2,1)-pyrrolidinacyclononaphane-1^6-carboxamide]: the pIC50 was 5.52 to 6.30. `COc1cc2c(N[C@@H]3CCCNC3)nccc2cc1C(N)=O` [Compound XXIX, (R)-7-methoxy-1-(piperidin-3-ylamino) isoquinoline-6-carboxamide] had a pIC50 of 5.52 to 6.30. In turn, `C[C@@H]1CC(=O)N2COCCOc3cc4c(nccc4cc3C(N)=O)OC[C@H]12` [Compound XXV, (4^2S, 4^3R)-4^3-methyl-4^5-oxo-2,6,9-trioxa-1 (1,7)-isoquinolina-4 (2,1)-pyrrolidinacyclononaphane-1^6-carboxamide] showed a pIC50 of over 6.30.

On to `COc1cc2c(N3CCC(C)(CN)CC3)nccc2cc1C(N)=O` [Compound XXVI, 1-(4-(aminomethyl)-4-methylpiperidin-1-yl)-7-methoxyisoquinoline-6-carboxamide], for which the negative logarithm of the IC50 (pIC50) is 5.52 to 6.30.

Take `COc1cc2c(N3CCC(N)CC3)nccc2cc1C(N)=O` [Compound XXVII, 1-(4-aminopiperidin-1-yl)-7-methoxyisoquinoline-6-carboxamide]: the pIC50 was 5.52 to 6.30. The result for `CC[C@@H]1CC(=O)N[C@@H]1CNc1nccc2cc(C(N)=O)c(OC)cc12` [Compound XXVIII, 1-((((2S, 3R)-3-ethyl-5-oxopyrrolidin-2-yl)methyl)amino)-7-methoxyisoquinoline-6-carboxamide] reads over 6.30; that for `COc1cc2c(N[C@@H]3CCCN(C(=O)CC#N)C3)nccc2cc1C(N)=O` [Compound XXX, (R)-1-((1-(2-cyanoacetyl)piperidin-3-yl)amino)-7-methoxyisoquinoline-6-carboxamide], 5.00 to 5.52. The result for `COc1cc2c(S[C@@H]3CCCN(C(=O)CC#N)C3)nccc2cc1C(N)=O` [Compound XXXI, (R)-1-((1-(2-cyanoacetyl)piperidin-3-yl)thio)-7-methoxyisoquinoline-6-carboxamide] reads 5.00 to 5.52; that for `COc1cc2c(N[C@@H]3CCNC3)nccc2cc1C(N)=O` [Compound XXXII, (R)-7-methoxy-1-(pyrrolidin-3-ylamino)isoquinoline-6-carboxamide], 5.52 to 6.30. As to `COc1cc2c(OCC3CCC(=O)N3)nccc2cc1OC(N)=O` (centres unmarked) [II, 7-methoxy-1-((5-oxopyrrolidin-2-yl)methoxy)isoquinolin-6-yl carbamate], the negative-log IC50 (pIC50) is 5.00 to 5.52. For the compound `COc1cc2c(OCC3CCC(=O)N3)nccc2cc1C(=O)NO` (centres unmarked) [IV, N-hydroxy-7-methoxy-1-((5-oxopyrrolidin-2-yl)methoxy) isoquinoline-6-carboxamide], the pIC50 is 5.00 to 5.52. Take `COc1cc2c(NCC3CCC(=O)N3)nccc2cc1C(N)=O` (centres unmarked) [VII, 7-methoxy-1-(((5-oxopyrrolidin-2-yl)methyl)amino) isoquinoline-6-carboxamide]: the pIC50 is 5.52 to 6.30. The result for `COc1cc2c(OC[C@@H]3CCC(=O)N3)nccc2cc1C(=O)S` [XIII, (S)-7-methoxy-1-((5-oxopyrrolidin-2-yl)methoxy) isoquinoline-6-carbothioic S-acid] reads 5.52 to 6.30.

Take `CC[C@@H]1CC(=O)N2COCCOc3cc4c(nccc4cc3C(N)=O)OC[C@H]12` [XIX, (4^2S, 4^3R)-4^3-ethyl-4^5-oxo-2,6,9-trioxa-1 (1,7)-isoquinolina-4 (2,1)-pyrrolidinacyclononaphane-1^6-carboxamide]: the pIC50 is 5.52 to 6.30. In the case of `NC(=O)c1cc2ccnc3c2cc1OCCOCN1C(=O)OCC1CO3` (centres unmarked) [XVII, 1^2-oxo-3,5,8-trioxa-1(4,3)-oxazolidina-4(1,7)-isoquinolinacyclononaphane-4^6-carboxamide] it was 5.52 to 6.30. The compound `NC(=O)c1cc2ccnc3c2cc1OCCOCN1C(=O)CC[C@H]1CO3` [XVIII, (S)-4^5-oxo-2,6,9-trioxa-1(1,7)-isoquinolina-4(2,1)-pyrrolidinacyclononaphane-1^6-carboxamide] showed a pIC50 of over 6.30.

In the case of `COc1cc2c(ccn2[C@H]2CC[C@H](N)C2)cc1C(N)=O` [XXIII, 1-((1S, 3S) 3-aminocyclopentyl)-6-methoxy-1H-indole-5-carboxamide], the pIC50 was 5.52 to 6.30. In turn, `CC#Cc1cnc(N2CCC[C@H](N)C2)c2cc(OC)c(C(N)=O)cc12` [XXXIV, (S)-1-(3-aminopiperidin-1-yl)-7-methoxy-4-(prop-1-yn-1-yl)soquinoline-6-carboxamide] had a pIC50 of over 6.30.

Compound `COc1cc2c(N3CCC[C@H](N)C3)ncc(Br)c2cc1C(N)=O` [XXXV, (S)-1-(3-aminopiperidin-1-yl)-4-bromo-7-methoxyisoquinoline-6-carboxamide] showed a pIC50 of 5.52 to 6.30. In turn, `COc1cc2c(N3CCC[C@H](N)C3)ncc(C#N)c2cc1C(N)=O` [XXXVI, (S)-1-(3-aminopiperidin-1-yl)-4-cyano-7-methoxyisoquinoline-6-carboxamide] had a pIC50 of 5.52 to 6.30.
